Laboratory results: patent USRE49351E1, “Cytoprotective agent” (Biogen MA Inc., priority 2009, dated 2023)

Legend:
plasmin/α2-antiplasmin = experiment: Plasmin activity by fibrinogen zymography of plasma, mouse cerebral infarction model; format: in vivo; conditions: 10 mg/kg 1 hour after ischemia, mean ± SE, n=6
Description: The quantity of plasmin/α2-antiplasmin in plasma was measured by a fibrinogen zymography method for evaluating the plasmin activity, when a triprenyl phenol compound was administered to a mouse cerebral infarction model. As triprenyl phenol compounds, SMTP-7, SMTP-6, SMTP-22, SMTP-25, SMTP-43, and SMTP-44D were used.
The triprenyl phenol compounds were prepared same as in Example 2 and Example 5. The administration of 10 mg/kg of a triprenyl phenol compound was initiated 1 hour after the initiation of ischemia. The administration method was same as Example 3. Six mice were used for each condition.
A blood sample was taken according to the following method at 3 time points, namely after the completion of the administration 0 hour (immediately after the completion), 1 hour, and 3 hours. Under anesthesia with 1 to 1.5% isoflurane, the […] and 90 μL of blood was withdrawn from the abdominal vena cava into a syringe containing 10 μL of sodium citrate (3.8%) (sodium citrate:blood=1:9, final concentration of sodium citrate 0.38%).
After collection the blood was centrifuged (5000 rpm, 15 min, 4° C.) to separate plasma. A part of the plasma was mixed with equal quantity of a sample buffer (125 mM Tris-HCl (pH 6.8), 4% (w/v) SDS, 0.04% (w/v) bromophenol blue, 20% (w/v) sucrose), which was then divided into small fractions, and cryopreserved.
A part of the plasma was reserved and diluted 300-fold with 0.1 N NaOH and the protein content was determined by the Bradford method in order to even out the protein mass to be applied to an electrophoresis gel.
As the standard sample, a sample was prepared by reacting 10 μL of 120 nM plasmin (by SIGMA) and 10 μL of 600 nM α2-antiplasmin (by Wako Pure Chemical Industries, Ltd.) at 37° C. for 30 min, and mixing the same with 20 μL of the sample buffer.
An electrophoresis gel was prepared by overlaying a stacking gel on a 7.5% running gel containing 2 mg/mL fibrinogen (by SIGMA). Based on the determined protein mass, 3 to 15 μL of the sample was applied, so that the equal amount of protein was applied.
After electrophoresis at 10 mA/sheet, for 3 hours the stacking gel was removed and rinsed for 30 min twice with about 100 mL/gel of a rinse liquid (2.5% Triton X-100). After rinsing, incubation was carried out at 37° C. for 24 to 60 hours under gentle shaking with about 100 mL/sheet of an incubation buffer (0.1 M glycine-50 mM Tris-HCl, pH 8.3 at 37° C.).
Thereafter the gel was stained by a stain solution (0.075% CBB 8250, 22.5% methanol, 2.25% sulfosalicylic acid dihydrate, 7.5% trichloroacetic acid) at room temperature for 15 to 30 min with gentle shaking. Removing the stain solution, the gel was decolored by a decoloring solution (methanol:acetic acid:water=1:1:6), which was replaced with water at an appropriate time point according to appearance of bands observed.
The image on the gel was read in by an imaging analyzer (Printgraph (AE-6933FXCF), by ATTO) and the band intensity was evaluated. The results are expressed as a ratio to the value of the control group at 0 hour after the completion of the administration (immediately after the completion).

[1] = H-ORAC (hydrophilic oxygen radical absorbance capacity) assay; format: biochemical; conditions: sodium salt aqueous solution, phosphate buffer pH 7.4
Description: To study the free radical scavenging activity of a triprenyl phenol compound, the following H-ORAC (hydrophilic oxygen radical absorbance capacity) assay, and modified H-ORAC (mH-ORAC) assay were conducted.
SMTP compounds evaluated by H-ORAC were used respectively in a form of a sodium salt aqueous solution, and the compounds evaluated by mH-ORAC were used respectively in a form of an acetone solution.
In H-ORAC a test compound was diluted appropriately with a buffer solution (75 mM phosphate buffer solution, pH 7.4) and used for measurement. In mH-ORAC a test compound was diluted appropriately by a 50% (v/v) acetone solution, prepared by diluting an acetone solution with water, to prepare a solution of 40-fold the final concentration. […] As for the reference material Trolox, 500 μM/buffer solution was diluted appropriately with a buffer solution.
To a 96-well microplate (transparent, flat bottom, black wall) 50 μL of a test compound solution or a Trolox solution was placed, and additionally 100 μL of a fluorescein 140 nM/buffer solution as a fluorescent substance was added (final concentration 70 nM), followed by incubation at 37° C. for […].
As a free radical generator, 50 μL of a 48 mM/buffer solution of 2,2′-azobis(amidinopropane)dihydrochloride was added (final concentration 12 mM), and fluorescence intensity at fluorescence wavelength of 535 nm with excitation wavelength of 485 nm was measured at 2 min intervals for 90 min. The calibration curve was prepared between the Trolox final concentrations of 5 to 15 μM. The measurement was conducted by changing the concentration with n=3, and plotted on a diagram with time on the abscissa and the fluorescence intensity on the ordinate. Therewith evaluation was made using the value obtained by reducing the area under the curve for the blank from the area under the curve for the sample. The result was expressed as an equivalent to Trolox.

[2] = plasma 0 hr after completion of administration
[3] = plasma 1 hr after completion of administration
[4] = plasma 3 hr after completion of administration

SMILES | plasmin activity (plasmin/α2-antiplasmin band intensity), ratio to control group at 0 hour (plasmin/α2-antiplasmin; [2]) | plasmin activity (plasmin/α2-antiplasmin band intensity), ratio to control group at 0 hour (plasmin/α2-antiplasmin; [3]) | plasmin activity (plasmin/α2-antiplasmin band intensity), ratio to control group at 0 hour (plasmin/α2-antiplasmin; [4]) | free radical scavenging activity, Trolox equivalent [1]
CC(C)=CCC/C(C)=C/CC[C@@]1(C)Oc2c(c(O)cc3c2CN(CCC[C@@H](C(=O)O)N2Cc4c(cc(O)c5c4O[C@](C)(CC/C=C(\C)CCC=C(C)C)[C@@H](O)C5)C2=O)C3=O)C[C@@H]1O [SMTP-7] | 1.49 ± 0.13 | 3.23 ± 0.47 | 3.27 ± 0.67 | 2.08 ± 0.13 molTE/mol
CC(C)=CCC/C(C)=C/CCC1(C)Oc2c(c(O)cc3c2CN(C(Cc2c[nH]c4ccccc24)C(=O)O)C3=O)CC1O (centres unmarked) [SMTP-6] | 1.08 ± 0.12 | 1.17 ± 0.14 | 1.68 ± 0.10 | 3.73 ± 0.42 molTE/mol
